Test results: patent US20250205204A1, “Transcription Factor Brn2 Inhibitory Compounds for Use as Therapeutics” (The University of British Columbia, priority 2021, published 2025)

How the values were obtained:
42D^ENZR cells = assay: Cell proliferation, BRN2 expressing 42D cells (crystal violet); type: cell-based; settings: about 72 hours; for Growth Specificity: 42D (express BRN2) versus 16D (no BRN2) cells, result in words; for IC50: 42D cells, proliferation, read-out: 42D IC50
Description: Step 3: Cell Proliferation
Plate 42DE^NZR (˜7000 cells per well) and 16D^CRPC (˜5000 cells per well) cells in 96 well plate with a volume of 100 μL per well. • 2. Next day 1 mL aliquots of media are combined with 3× the desired concentration of compounds. The aliquots are vortexed and 50 μL of each 3× concentration is added to the 100 μL of media in each well to give the ix desired concentration.
The following are the desired concentrations:
Approximately 72 hours later, 17 μL of 10% Glutaraldehyde is added to each well and plates are placed on a shaker for 20-30 minutes. • 4. Media is washed off the fixed cells by slow submersion in a container of water. Then the water is removed by tapping the plate upside down. • 5. 75 μL of Crystal Violet™ solution is added into the 96 well plates and placed on a shaker for ˜30 minutes. • 6. Media is washed off the fixed cells by repeated slow submersion in a container of water and the plates are allowed to dry over-night. • 7. Next day, 75 μL of Sorensen Solution is accurately pipetted into each well. The plates placed on a shaker for ˜30 minutes. • 8. Absorbance is measured in the plate at 590 nm.
There is a distinction in TABLES 1 and 2 difference between “Active” and “Specific” or “Specificity”.

BRN2 = target: T1, BRN2 (Homo sapiens, UniProt P20265); assay: BLI binding; settings: result in words
T1 sequence (P20265 1-443): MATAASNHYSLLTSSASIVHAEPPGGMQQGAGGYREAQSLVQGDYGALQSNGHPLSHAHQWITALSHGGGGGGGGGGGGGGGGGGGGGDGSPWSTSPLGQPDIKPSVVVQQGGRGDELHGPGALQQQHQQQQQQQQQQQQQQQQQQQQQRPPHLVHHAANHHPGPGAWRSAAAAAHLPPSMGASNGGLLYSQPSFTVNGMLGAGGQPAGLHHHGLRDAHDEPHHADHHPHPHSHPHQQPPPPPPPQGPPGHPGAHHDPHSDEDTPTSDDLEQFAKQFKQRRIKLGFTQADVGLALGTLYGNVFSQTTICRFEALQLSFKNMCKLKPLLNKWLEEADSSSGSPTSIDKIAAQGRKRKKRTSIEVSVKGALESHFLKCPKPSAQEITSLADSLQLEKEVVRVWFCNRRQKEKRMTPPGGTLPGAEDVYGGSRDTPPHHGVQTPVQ

[1] = Metabolic stability in liver microsomes (MLM); type: in vitro ADME, mice; settings: 0.25 mg/mL protein; for half-life at 1 μM: mouse, liver microsomes, pH 7.4, 1 μM compound, read-out: T1/2 in mins (MLM); for Met Stab % (60 mins) MLM: percent remaining at 60 min, 1 μM compound, 1 mM NADPH
Description: Preparation of Potassium Phosphate Buffer, 50 mM (pH 7.4)
Potassium phosphate buffer (Kphos) was prepared by adding 0.647 g potassium phosphate monobasic (KH2PO4) and 3.527 g potassium phosphate dibasic (KH2PO4) to 400 mL of Milli-Q™ water. pH of the buffer was adjusted to 7.4 and volume was made up to 500 mL.
Preparation of Microsomes
Stock solutions of BRN2 inhibitors were prepared in DMSO at a concentration of 1 mM
Preparation of NADPH Solution
• Total Incubation volume: 100 μL • Compound concentration: 1 μM • Protein Concentration: 0.25 mg/mL • NADPH: 1 mM • Final DMSO contain: 0.1% • Number of replicates: 2 • Time points: 0, 5, 15, 30 and 60 min
From the above mix, 70 μL was added to individual wells of 96 well reaction plates and pre-incubated in a 37° C. water bath for 5 min. […] Reactions without NADPH and buffer controls (minus NADPH) at 0 min and 60 min were also incubated to rule out non-NADPH metabolism or chemical instability in the incubation buffer. All reactions were terminated using 100 μL of ice-cold acetonitrile containing internal standard at 0, 5, 15, 30 and 60 min.
Samples were monitored for parent compounds disappearance in MRM mode using LC-MS/MS.
The percent remaining of test compounds and positive control in each sample was determined by considering peak area ratio in the 0 minute sample as 100%. The Half-life of compounds in microsomes is calculated by formula: […]
In vitro intrinsic clearance (CL'int) (units in mL/min/kg) was calculated using the formula.
[formula] • For liver microsomes, scaling factor used was 45 mg microsomal protein per gm liver. • * Indicates liver weight (gm) which varies species wise. For mice the liver weights are 90 gm.

SMILES	Growth Specificity (42D^ENZR cells)	BLI binding (BRN2)	half-life at 1 μM [1] [min]	Met Stab % (60 mins) MLM [1] [%]	IC50 (42D^ENZR cells) [µM]
O=C1/C(=N\Nc2nc3ccccc3s2)Cc2ccc(F)cc21 [7-81, (Z)-2-(2-(benzo[d]thiazol-2-yl)hydrazineylidene)-6-fluoro-2,3-dihydro-1H-inden-1-one]	Specific to 42D	Positive binding	22	26	
O=C1/C(=N\Nc2nc3ccccc3s2)Oc2ccccc21 [7-90]	Not specific	no binding	13	4	
O=C1/C(=N\Nc2nc3ccccc3s2)Cc2c1cccc2C(F)(F)F [7-91]	Specific to 42D	Positive binding	> 60	67	~2
N#Cc1ccc2c(c1)C(=O)/C(=N\Nc1nc3ccccc3s1)C2 [7-92]	Specific but weak	Positive binding	48	41	~15
N#Cc1ccc2c(c1)C/C(=N/Nc1nc3ccccc3s1)C2=O [7-93]	Specific but weak	no binding	44	39	~15
O=C1/C(=N\Nc2nc3ccccc3s2)Cc2cc(Br)ccc21 [7-94]	Specific to 42D	Positive binding	> 60	50	~2
O=C1/C(=N\Nc2nc3ccccc3s2)Nc2ccccc21 [7-95]	Specific but weak	Positive binding	> 60	69	~15
Cc1ccc2c(c1)C/C(=N/Nc1nc3ccccc3s1)C2=O [7-96]	Specific but weak	inconclusive, needs to be repeated	31	22	~15
O=C1/C(=N\Nc2nc3ccccc3s2)Cc2cc(F)c(F)cc21 [7-97]	Specific to 42D	Positive binding	> 60	69	~2
O=C1/C(=N\Nc2nc3ccccc3s2)Cc2cc(F)c(Cl)cc21 [7-100]	Specific to 42D	Positive binding	38	30	~2
O=C1/C(=N\Nc2nc3ccccc3s2)Cc2c1ccc(F)c2F [7-101]	Specific to 42D cells	Positive binding	> 60	67	1 to 2.5
O=C1/C(=N\Nc2nc3ccccc3s2)Cc2cc(F)cc(F)c21 [7-102]	Specific to 42D cells	Positive binding but not strong	56	46	~2.5
O=C1/C(=N\Nc2nc3ccccc3s2)Cc2cc(N3CCOCC3)ccc21 [7-103]	Not specific	No binding	44	42	
CCc1ccc2c(c1)C/C(=N/Nc1nc3ccccc3s1)C2=O [7-104]	Not specific	No binding	25	17	
O=C1/C(=N\Nc2nc3ccccc3s2)Cc2cc(C3CC3)ccc21 [7-105]	Not specific	No binding	> 60	75	
O=C1/C(=N\Nc2nc3ccccc3s2)Cc2cccc(C(F)(F)F)c21 [7-106]	Specific to 42D cells	Positive binding	46	38	~2
CCN(CC)c1ccc2c(c1)C(=O)/C(=N\Nc1nc3ccccc3s1)C2 [7-109]	Not specific	Positive binding	13	3	
COC(=O)c1ccc2c(c1)C(=O)/C(=N\Nc1nc3ccccc3s1)C2 [7-110]	No activity	No binding	32	25	
COC(=O)c1ccc2nc(N/N=C3/Cc4ccccc4C3=O)sc2c1 [7-111]	No activity	No binding	15	6	
O=C1/C(=N\Nc2nc3ccccc3s2)Cc2cc(N3CCCCC3)ccc21 [7-112]	Not specific	No binding	32	26	
O=C1/C(=N\Nc2nc3ccccc3s2)Cc2cc(N3CCC3)ccc21 [7-113]	precipitates	No binding	15	6	
CN1/C(=N/Nc2nc3ccccc3s2)C(=O)c2ccccc21 [7-114]	precipitates	No binding	44	40	
CN1C(=O)/C(=N/Nc2nc3ccccc3s2)c2ccccc21 [7-115]	Not specific	No binding	7	2	
O=C1/C(=N\Nc2nc3ccccc3s2)Nc2cc(Br)ccc21 [7-116]	Not specific	No binding	> 60	64	
